Source: patent US20160263150A1, “TUNING BIOLOGICAL SYSTEM PROPERTIES FOR OPTIMIZED TREATMENT EFFICACY” (Baylor College of Medicine, priority 2015, published 2016)

What was measured:
Format in all cases: physicochemical
[1] = RF heating of kosmotropic materials in PBS (Example 2); conditions: 342 mg/mL in PBS
Procedure: Kosmotropic material solutions in phosphate buffered saline (PBS) were prepared using concentrated PBS to maintain equal ion concentration in all solutions. Kosmotropic materials (sucrose, maltose, trehalose, glycerol, propylene glycol, ethylene glycol) and all salts were obtained from Sigma-Aldrich in high purity (>98%) and used as received.
A variable power Kanzius External RF system (13.56 MHz) Generator System (ThermMed, LLC, Erie, Pa.) was used to heat aqueous solutions and tissue samples. A high-voltage RF field is generated in the 8 cm air gap between the transmitting and receiving heads of the RF-field generator. For aqueous experiments, samples were placed in a 1.3 mL quartz cuvette on a nonconducting Teflon holder mounted on an adjustable rotary stage at ambient temperature and open to air. […] Sample temperatures were recorded using an infrared camera (FLIR SC 6000, FLIR Systems, Inc., Boston, Mass.) approximately every 0.17 seconds. […] Heating rates were calculated by fitting a linear regression to the temperature versus time plot of each sample for the duration of RF exposure or only for the first five seconds of RF exposure. The latter methodology allows for the assumption that the dielectric properties remain approximately constant in the time frame analyzed, as discussed herein. […]

[2] = RF-induced heating of m-/s-SWNT suspensions in NaCl solutions; conditions: with 2% w/v Pluronic F108
Procedure: Once characterized, these m-/s-SWNT samples were then exposed to a high-intensity (˜90 kV/m) 13.56 MHz RF electric field. […] Approximately 1.3 mL of each sample was placed in a cylindrical quartz cuvette (˜1 cm height by ˜1 cm diameter) and exposed to the RF field for 120 seconds or until the temperature reached 70° C. to prevent electrical arcing. Thermal imaging data was captured using an FLIR SC 600 infrared camera. Videos were also recorded simultaneously using a Nikon SLR camera. Once the samples had been exposed, the SWNTs were removed from solution using a 100 KDa filter to collect the supernatant, which was then re-exposed to the RF field. The differential heating rates determined heat production from the SWNTs themselves and not the Pluronic F108/NaCl background.
Using the highest SWNT concentration of 100 mg/L, Applicants then sought to investigate SWNT heating rates versus host medium conductivity, which was modulated using NaCl solutions. Aqueous NaCl solutions (all with 2% w/v Pluronic F108) across the molarity range 10^4 to 10^3 mM were combined with m-/s-SWNTs at a concentration of 100 mg/L. These were then exposed to the RF field and filtered to remove the supernatant, which was then re-exposed.

[3] = RF (13.56 MHz) heating rate of kosmotropic materials dissolved in PBS, 100 W; conditions: 500 mg/m in PBS
Procedure: Sample temperature was measured using an infrared camera. The heating rates were calculated by a least-squares linear regression of the resultant temperature-time plot (FIG. 2B). Samples were heated from 23° C. to either 27° C. or for a duration of 60 seconds, whichever occurred first. Over this selected small temperature range, the variation of the temperature-dependence of dielectric properties was negligible.
The complex relative permittivity (∈′r and e″r) of all samples was measured over the frequency range of 10 MHz to 3 GHz (FIGS. 4A-B). From these measurements, the conductivity was obtained using the relationship σ=ω∈D∈″r. […]
Each of the materials listed in FIG. 5A were dissolved at 100, 250, and 500 mg/mL in phosphate buffered saline (PBS), a biologically iso-osmolar solution with similar conductivity (1.15 S/m) to blood and body tissues. […] RF heating rates and conductivity were measured according to the procedure described in Examples 1.1 and 1.2. […]
A variable power RF (13.56 MHz) Generator System (ThermMed, LLC, Erie, Pa.) was used to heat aqueous solutions. […] Sample temperatures were recorded using an infrared camera (FLIR SC 6000, FLIR Systems, Inc., Boston, Mass.) approximately every 0.17 s. […] Heating rates were calculated by fitting a linear regression to the temperature versus time plot of each sample for the duration of RF exposure.

[4] = RF heating rate and conductivity of bovine blood mixed with additives; conditions: for effect of addition on blood conductivity and heating rate: 1-20% by weight in bovine blood; for additive content from which a significant increase in blood heating rate (p<0.005) was observed: by weight in bovine blood with 2-3% EDTA
Procedure: In a similar study, various additives were added to bovine blood containing 2-3% ethylenediamine tetraacetic acid (EDTA) to prevent coagulation. The additives tested were propylene glycol, glycerol, pure water and normal saline at concentrations of 1-20% by weight.
A variable power RF (13.56 MHz) Generator System (ThermMed, LLC, Erie, Pa.) was used to heat aqueous solutions. A high-voltage RF field is generated in the 8 cm air gap between the transmitting and receiving heads of the RF field generator. For aqueous experiments, samples were placed in a 1.3 mL quartz cuvette on a non-conducting Teflon holder mounted on an adjustable rotary stage at ambient temperature and open to air. The cuvette was placed 8 mm from the transmitting head of the RF field generator and exposed to the high-voltage RF field at 100 or 900 W generator power. Sample temperatures were recorded using an infrared camera (FLIR SC 6000, FLIR Systems, Inc., Boston, Mass.) approximately every 0.17 s. At both 100 W and 900 W, samples were heated from ambient temperature (i.e., ˜23° C.) to 27° C. or for a duration of 60 seconds, whichever occurred first. Heating rates were calculated by fitting a linear regression to the temperature versus time plot of each sample for the duration of RF exposure.
Previous experiments involved conductivity modulation of PBS, a biologically relevant aqueous solution commonly used in laboratory settings. […] Blood samples contained 2-3% ethylenediamine tetraacetic acid (EDTA) to prevent coagulation. A number of additives, including water, normal saline, propylene glycol and glycerol were mixed with blood at increasing weight percent content (1-20%).

[5] = RF heating of neat ethanol and oils, 900 W
Procedure: A variable power Kanzius External RF system (13.56 MHz) Generator System (ThermMed, LLC, Erie, Pa.) was used to heat aqueous solutions and tissue samples. A high-voltage RF field is generated in the 8 cm air gap between the transmitting and receiving heads of the RF-field generator. For aqueous experiments, samples were placed in a 1.3 mL quartz cuvette on a nonconducting Teflon holder mounted on an adjustable rotary stage at ambient temperature and open to air. The cuvette was placed 8 mm from the transmitting head of the RF-field generator and exposed to the high-voltage RF field at 900 W generator power. Sample temperatures were recorded using an infrared camera (FLIR SC 6000, FLIR Systems, Inc., Boston, Mass.) approximately every 0.17 seconds. Samples were heated from ambient temperature (i.e., ˜23° C. to ˜70° C. or for 120 seconds), whichever occurred first. Heating rates were calculated by fitting a linear regression to the temperature versus time plot of each sample for the duration of RF exposure or only for the first five seconds of RF exposure. The latter methodology allows for the assumption that the dielectric properties remain approximately constant in the time frame analyzed, as discussed herein.

| PBS heating rate with kosmotropic material [1] [° C./s] | additive content from which a significant increase in blood heating rate (p<0.005) was observed [4] [%] | SMILES | effect of addition on blood conductivity and heating rate [4] | further results |
| --- | --- | --- | --- | --- |
| 0.32±0.01 |  | OC[C@H]1O[C@H](O[C@H]2[C@H](O)[C@@H](O)C(O)O[C@@H]2CO)[C@H](O)[C@@H](O)[C@@H]1O (mixture of isomers) [Maltose, maltose] |  |  |
|  |  | [Cl-].[Na+] [NaCl] |  | NaCl concentration at maximum heating [2]: 5 mM |
|  | 5 | CC(O)CO (stereo not drawn) [Propylene glycol, propylene glycol] | decrease in blood conductivity and increase in heating rate | increase of the heating rate of PBS [3]: 490% |
|  |  | CCO [ethanol] |  | RF heating rate of neat material [5]: 0.09 ° C./s |
|  | 10 | OCC(O)CO [glycerol] | decrease in blood conductivity and increase in heating rate |  |
| 0.33±0.01 |  | OC[C@H]1O[C@H](O[C@H]2O[C@H](CO)[C@@H](O)[C@H](O)[C@H]2O)[C@H](O)[C@@H](O)[C@@H]1O [trehalose] |  |  |
